Assay results from patent US8329755B2, “Methods for treating retroviral infections” (Roche Palo Alto LLC, priority 2004, dated 2012).

First: Cc1cc(S(N)(=O)=O)ccc1NC(=O)Cc1ccc(Br)c(Oc2cc(C#N)cc(C(F)F)c2)c1F [Compound I-169, 2-[4-Bromo-3-(3-cyano-5-difluoromethyl-phenoxy)-2-fluoro-phenyl]-N-(2-methyl-4-sulfamoyl-phenyl)-acetamide]
Second: N#Cc1cc(Oc2c(Br)ccc(CC(=O)Nc3ccc(S(N)(=O)=O)cc3Cl)c2F)cc(C(F)F)c1 [Compound I-165, 2-[4-Bromo-3-(3-cyano-5-difluoromethyl-phenoxy)-2-fluoro-phenyl]-N-(2-chloro-4-sulfamoyl-phenyl)-acetamide]
The melting point of the first is higher: 223.9 to 225 °C for the first, 205.4 to 207.7 °C for the second.

Compared with `N#Cc1cc(Cl)cc(Oc2cc(CC(=O)Nc3ccc(S(N)(=O)=O)cc3)ccc2Cl)c1` [Compound I-1, 2-[4-Chloro-3-(3-chloro-5-cyano-phenoxy)-phenyl]-N-(4-sulfamoyl-phenyl)-acetamide], `Cc1cc(S(N)(=O)=O)ccc1NC(=O)Cc1ccc(C)c(Oc2cc(Cl)cc(C#N)c2)c1` [Compound I-122, 2-[3-(3-Chloro-5-cyano-phenoxy)-4-methyl-phenyl]-N-(2-methyl-4-sulfamoyl-phenyl)-acetamide] is lower in melting point: 210.5 to 214 °C for the first, 192.8 to 194.1 °C for the second.

First: CCc1ccc(CC(=O)Nc2ccccc2Cl)cc1Oc1cc(Br)cc(F)c1Cl [Compound I-41, 2-[3-(5-Bromo-2-chloro-3-fluoro-phenoxy)-4-ethyl-phenyl]-N-(2-chloro-phenyl)-acetamide]
Second: Cc1cc(C#N)cc(C)c1Oc1cc(CC(=O)Nc2ccccc2Cl)ccc1Cl [Compound I-68, 2-[4-Chloro-3-(4-cyano-2,6-dimethyl-phenoxy)-phenyl]-N-(2-chloro-phenyl)-acetamide]
The melting point of the first is lower: 146.6 to 147.2 °C for the first, 183.9 to 185.1 °C for the second.

Compared with `COc1ccc(CC(=O)Nc2ccc(S(N)(=O)=O)cc2C)cc1C(=O)c1cc(Br)ccc1Cl` [Compound I-264, 2-[3-(5-Bromo-2-chloro-benzoyl)-4-methoxy-phenyl]-N-(2-methyl-4-sulfamoyl-phenyl)-acetamide], `Cc1cc(S(N)(=O)=O)ccc1NC(=O)Cc1ccc(C)c(C(=O)c2cc(C#N)ccc2C)c1` [Compound I-265, 2-[3-(5-Cyano-2-methyl-benzoyl)-4-methyl-phenyl]-N-(2-methyl-4-sulfamoyl-phenyl)-acetamide] is higher in melting point: 177 to 177.9 °C for the first, 224.3 to 228.1 °C for the second.

Compared with `Cc1cc(CC(=O)Nc2ccccc2Cl)cc(C(=O)c2cccc(Cl)c2)c1` [Compound I-262, 2-[3-(3-Chloro-benzoyl)-5-methyl-phenyl]-N-(2-chloro-phenyl)-acetamide], `Cc1cc(CC(=O)Nc2ccccc2Cl)cc(C(=O)c2ccc(Cl)cc2)c1` [Compound I-258, 2-[3-(4-Chloro-benzoyl)-5-methyl-phenyl]-N-(2-chloro-phenyl)-acetamide] is higher in melting point: 113 to 113.8 °C for the first, 134.7 to 135.5 °C for the second.

First: O=C(Cc1ccc(Cl)c(Sc2cc(Cl)ccc2Br)c1)Nc1ccccc1Cl [Compound I-244, 2-[3-(2-Bromo-5-chloro-phenylsulfanyl)-4-chloro-phenyl]-N-(2-chloro-phenyl)-acetamide]
Second: COc1ccc(CC(=O)Nc2ccccc2Cl)cc1Oc1cc(Cl)cc(C#N)c1 [Compound I-61, 2-[3-(3-Chloro-5-cyano-phenoxy)-4-methoxy-phenyl]-N-(2-chloro-phenyl)-acetamide]
The melting point of the first is lower: 172.2 to 172.8 °C for the first, 175.7 to 178.3 °C for the second.

First: CC(F)(F)c1cc(C#N)cc(Oc2c(Cl)ccc(CC(=O)Nc3ccc(S(N)(=O)=O)cc3Cl)c2F)c1 [Compound I-97, 2-{4-Chloro-3-[3-cyano-5-(1,1-difluoro-ethyl)-phenoxy]-2-fluoro-phenyl}-N-(2-chloro-4-sulfamoyl-phenyl)-acetamide]
Second: Cc1cc(S(N)(=O)=O)ccc1NC(=O)Cc1ccc(Cl)c(Oc2cc(C#N)cc(C#CCN(C)C)c2)c1F [Compound I-187, 2-{4-Chloro-3-[3-cyano-5-(3-dimethylamino-prop-1-ynyl)-phenoxy]-2-fluoro-phenyl}-N-(2-methyl-4-sulfamoyl-phenyl)-acetamide]
The melting point of the first is higher: 192 to 197.6 °C for the first, 156.2 to 158.2 °C for the second.

Compared with `CSc1nc(NC(=O)Cc2ccc(C)c(Oc3cc(Cl)cc(C#N)c3)c2)n(C)n1` [Compound I-230, 2-[3-(3-Chloro-5-cyano-phenoxy)-4-methyl-phenyl]-N-(2-methyl-5-methylsulfanyl-2H-[1,2,4]triazol-3-yl)-acetamide], `COc1ccc(NC(=O)Cc2ccc(C)c(Oc3cc(Cl)cc(C#N)c3)c2)c(C)n1` [Compound I-229, 2-[3-(3-Chloro-5-cyano-phenoxy)-4-methyl-phenyl]-N-(6-methoxy-2-methyl-pyridin-3-yl)-acetamide] is lower in melting point: 173 to 174 °C for the first, 168.3 to 170.4 °C for the second.

Compared with `COCCC(=O)NS(=O)(=O)c1ccc(NC(=O)Cc2ccc(Cl)c(Oc3cc(Cl)cc(C#N)c3)c2F)c(Cl)c1.[Na]`, `COCC(=O)NS(=O)(=O)c1ccc(NC(=O)Cc2ccc(Cl)c(Oc3cc(Cl)cc(C#N)c3)c2F)c(Cl)c1.[Na]` is higher in melting point: 133.1 to 140.7 °C for the first, 151.7 to 152.3 °C for the second.

Compared with `CCc1ccc(CC(=O)Nc2ccc(S(N)(=O)=O)cc2C)c(F)c1Oc1cc(C#N)cc(C(F)F)c1` [Compound I-180, 2-[3-(3-Cyano-5-difluoromethyl-phenoxy)-4-ethyl-2-fluoro-phenyl]-N-(2-methyl-4-sulfamoyl-phenyl)-acetamide], `Cc1ccc(CC(=O)Nc2ccccc2Cl)c(F)c1Oc1cc(C#N)cc(C(F)F)c1` [Compound I-86, N-(2-Chloro-phenyl)-2-[3-(3-cyano-5-difluoromethyl-phenoxy)-2-fluoro-4-methyl-phenyl]-acetamide] is lower in melting point: 237.6 to 238.4 °C for the first, 163.3 to 164.4 °C for the second.

First: Cc1cc(CC(=O)Nc2ccc(S(N)(=O)=O)cc2)cc(C(=O)c2ccc(Cl)cc2)c1 [Compound I-254, 2-[3-(4-Chloro-benzoyl)-5-methyl-phenyl]-N-(4-sulfamoyl-phenyl)-acetamide]
Second: Cc1cc(CC(=O)Nc2ccc(S(N)(=O)=O)cc2C)cc(C(=O)c2ccccc2Cl)c1 [Compound I-256, 2-[3-(2-Chloro-benzoyl)-5-methyl-phenyl]-N-(2-methyl-4-sulfamoyl-phenyl)-acetamide]
The melting point of the first is higher: 260.9 to 263.3 °C for the first, 207.7 to 209.3 °C for the second.

First: Cc1cc(N2CC[S+]([O-])CC2)ccc1NC(=O)Cc1ccc(C)c(Oc2cc(Cl)cc(C#N)c2)c1 [Compound I-160, 2-[3-(3-Chloro-5-cyano-phenoxy)-4-methyl-phenyl]-N-[2-methyl-4-(1-oxo-1λ^4-thiomorpholin-4-yl)-phenyl]-acetamide]
Second: Cc1cc(N2CCS(=O)(=O)CC2)ccc1NC(=O)Cc1ccc(C)c(Oc2cc(Cl)cc(C#N)c2)c1 [Compound I-161, 2-[3-(3-Chloro-5-cyano-phenoxy)-4-methyl-phenyl]-N-[4-(1,1-dioxo-1λ^6-thiomorpholin-4-yl)-2-methyl-phenyl]-acetamide]
The melting point of the first is higher: 181.3 to 182.1 °C for the first, 64.8 to 65.4 °C for the second.

First: Cc1cc(C(=O)CN2CCN(C)CC2)ccc1NC(=O)Cc1ccc(C)c(Oc2cc(Cl)cc(C#N)c2)c1 [Compound I-159, 2-[3-(3-Chloro-5-cyano-phenoxy)-4-methyl-phenyl]-N-{2-methyl-4-[2-(4-methyl-piperazin-1-yl)-acetyl]-phenyl}-acetamide]
Second: CCOC(=O)C(=O)Nc1ccc(NC(=O)Cc2ccc(C)c(Oc3cc(Cl)cc(C#N)c3)c2)c(C)c1 [Compound I-178, N-(4-{2-[3-(3-Chloro-5-cyano-phenoxy)-4-methyl-phenyl]-acetylamino}-3-methyl-phenyl)-oxalamic acid ethyl ester]
The melting point of the first is lower: 62.3 to 64.1 °C for the first, 182.5 to 183.9 °C for the second.

First: Cl.N#Cc1cc(Cl)cc(Oc2c(Cl)ccc(CC(=O)Nc3ccc(S(=O)(=O)NC(=O)CCN)cc3Cl)c2F)c1
Second: N#Cc1cc(Cl)cc(Oc2c(Cl)ccc(CC(=O)Nc3ccc(S(=O)(=O)NC(=O)CO)cc3Cl)c2F)c1.[Na]
The melting point of the first is higher: 199.3 to 199.6 °C for the first, 178 to 179.5 °C for the second.

Compared with `Cc1cc(S(=O)(=O)NCC(C)O)ccc1NC(=O)Cc1ccc(C)c(Oc2cc(Cl)cc(C#N)c2)c1` (stereo not shown) [Compound I-129, 2-[3-(3-Chloro-5-cyano-phenoxy)-4-methyl-phenyl]-N-[4-(2-hydroxy-propylsulfamoyl)-2-methyl-phenyl]-acetamide], `Cc1cc(OCC[C@@H](O)CO)ccc1NC(=O)Cc1ccc(C)c(Oc2cc(Cl)cc(C#N)c2)c1` [Compound I-151, 2-[3-(3-Chloro-5-cyano-phenoxy)-4-methyl-phenyl]-N-[4-((R)-3,4-dihydroxy-butoxy)-2-methyl-phenyl]-acetamide] is lower in melting point: 172.2 to 173.4 °C for the first, 104.9 to 106.4 °C for the second.

Compared with `Cc1cc(S(N)(=O)=O)ccc1NC(=O)Cc1cc(Oc2cccc(C#N)c2)c2occc2c1` [Compound I-145, 2-[7-(3-Cyano-phenoxy)-benzofuran-5-yl]-N-(2-methyl-4-sulfamoyl-phenyl)-acetamide], `CCc1cc(CC(=O)Nc2ccc(S(N)(=O)=O)cc2Cl)cc(Oc2cc(C#N)ccc2Cl)c1` [Compound I-107, 2-[3-(2-Chloro-5-cyano-phenoxy)-5-ethyl-phenyl]-N-(2-chloro-4-sulfamoyl-phenyl)-acetamide] is lower in melting point: 218.9 to 220 °C for the first, 204 to 207 °C for the second.

First: CCc1ccc(CC(=O)Nc2ccc(S(N)(=O)=O)cc2C)cc1Oc1cc(C#N)cc(C#N)c1Cl [Compound I-53, 2-[3-(2-Chloro-3,5-dicyano-phenoxy)-4-ethyl-phenyl]-N-(2-methyl-4-sulfamoyl-phenyl)-acetamide]
Second: COc1ccc(CC(=O)Nc2ccc(S(N)(=O)=O)cc2Cl)cc1Oc1cc(C#N)ccc1Cl [Compound I-67, 2-[3-(2-Chloro-5-cyano-phenoxy)-4-methoxy-phenyl]-N-(2-chloro-4-sulfamoyl-phenyl)-acetamide]
The melting point of the first is lower: 199.4 to 205.3 °C for the first, 214.6 to 216.4 °C for the second.

First: Cc1cc(CC(=O)Nc2ccccc2Cl)cc(C(=O)c2cc(Cl)cc(Cl)c2)c1 [Compound I-231, N-(2-Chloro-phenyl)-2-[3-(3,5-dichloro-benzoyl)-5-methyl-phenyl]-acetamide]
Second: Cc1ccc(CC(=O)Nc2ccc(CC(=O)O)cc2Cl)cc1Oc1cc(Cl)cc(C#N)c1 [Compound I-236, (3-Chloro-4-{2-[3-(3-chloro-5-cyano-phenoxy)-4-methyl-phenyl]-acetylamino}-phenyl)-acetic acid]
The melting point of the first is lower: 142 to 146.2 °C for the first, 159.6 to 160 °C for the second.

`CC(C)CCC(=O)NS(=O)(=O)c1ccc(NC(=O)Cc2ccc(Cl)c(Oc3cc(Cl)cc(C#N)c3)c2F)c(Cl)c1.[Na]` gave a melting point of 195.6 to 197 °C.
